# Measurements from article PMC4522657, “Identification of a DYRK1A Inhibitor that Induces Degradation of the Target Kinase using Co-chaperone CDC37 fused with Luciferase nanoKAZ” (Scientific Reports, 2015).
# pEC50, pIC50: −log10 of the molar value.
# Legend:
# CDC37-nanoKAZ = test: Luminescence activity of CDC37-nanoKAZ in total cell lysates; assay type: cell-based; conditions: counter-test, same concentrations as interaction assay
# Protocol: (§1) The luminescence activity of the cell lysates was determined using a Centro LB 960 Microplate Luminometer (Berthold Technologies, Bad Wildbad, Germany). A reaction mixture containing bis-coelenterazine (final concentration of 0.1–1 μg/100 μL) in PBS containing 0.02% Tween20 and 20 mM EDTA was injected. The luminescence intensity was recorded at 0.1 s intervals for 10 s or 10 min. The maximum luminescence intensity (Imax), represented in relative luminescence units (rlu), was used in the study.
# Targeting the DYRK1A/CDC37 complex
# (a-d) Luminescence intensities of total cell lysates of cells treated with the indicated […]
# Figure 4. Luminescence intensities at each concentration are shown as fold-changes relative to that at 0 nM. Points are means ± SD (n = 3).
# (1 picture or pasted object on this page, not shown here)
# Luminescence intensities of total cell lysates of cells treated with the indicated concentrations of CaNDY, as also used in Figure 5c. Luminescence intensities at each concentration are shown as fold-changes to that at 0 nM. Points are means ± SD (n = 3).
# DYRK1A = DYRK1A (Homo sapiens, UniProt Q13627); test: In vitro kinase assay, substrate DYRKtide-F; assay type: biochemical; set-up: full-length human recombinant kinases were expressed using a baculovirus expression system as amino-terminal GST-fusion proteins; GST (N); purchased Carna Biosciences; host or cells: baculovirus expression system; conditions: for inhibitory activity against recombinant DYRK1A: result in words, Fig. 6b
# From the text: Detailed information on the assay conditions is available on the website of Carna Biosciences (http://www.carnabio.com/english/index.html; Kobe, Japan). In brief, full-length human recombinant kinases were expressed using a baculovirus expression system as amino-terminal GST-fusion proteins, and purified by glutathione-Sepharose chromatography. The GenBank accession numbers of DYRK1A, DYRK1B, DYRK2, and DYRK3 were NP_001387.2, NP_004705.1, NP_003574.1, and NP_003573.2. […] For each compound, a DMSO solution was diluted in assay buffer to yield a final concentration of 1% DMSO. After incubation for one hour at room temperature, substrate phosphorylation was analyzed by electrophoretic separation of the substrate and products using a Caliper LC3000 platform (Caliper Life Sciences, Mountain View, CA, USA). The phosphorylated product (P)/(P + substrate) ratio was calculated at each concentration of each small molecule and the percent inhibition was expressed relative to a control assay in the absence of the small molecule. […] The IC50 of each compound was calculated by interpolation on a log-concentration-response curve fitted with a four-parameter logistic equation.
# [1] = target: T1, interaction of CDC37-nanoKAZ with 3xFLAG-DYRK1A (Y319F/Y321F) (Homo sapiens, UniProt Q13627, Y319F/Y321F); test: CDC37-nanoKAZ binding assay (ELISA of the CDC37-nanoKAZ interaction) in 293T cells; assay type: cell-based; conditions: for pEC50: 293T cells stably expressing CDC37-nanoKAZ, treated one hour, read-out: EC50, decrease of relative luminescence intensity; for antagonism of the CDC37-nanoKAZ interaction: result in words, Fig. 6c
# T1 construct: F2A peptide linking to EGFP (2A skipping releases EGFP; a 2A remnant may stay on DYRK1A) (C); expressed in transfected cells; host or cells: 293T cells stably expressing CDC37-nanoKAZ, transiently transfected with pcDNA5/FRT/TO 3xFLAG-DYRK1A (Y319F/Y321F)
# Protocol: The cells were then treated with the indicated concentrations of small molecules for one hour. Cell lysates were added to FLAG antibody-coated 96-well plates and luminescence intensities were measured. The amount of bound 3xFLAG-DYRK1A was measured using a HRP-conjugated antibody against FLAG. The relative Imax for CDC37-nanoKAZ was normalized using the amount of bound protein.
# Stable cell lines transfected with expression vectors for 3xFLAG-tagged DYRK family kinases and its mutants were lysed in ice-cold HENG buffer (50 mM HEPES-KOH, pH 7.9, 150 mM NaCl, 20 mM Na2MoO4, 2 mM EDTA, 5% Glycerol, 0.5% TritonX-100) containing protease inhibitor cocktail (Nacalai Tesque) on ice. […] The wells were wash three times with ice-cold HENG buffer and then a luminescence assay was performed.
# as §1
# After measuring the luminescence intensities, the wells were washed three times with HENG buffer, and incubated with HRP-conjugated anti-FLAG antibody diluted with PBS containing […] and 2% fetal bovine serum at 37 °C for one hour. After extensive washing, […] Super Sensitive One Component HRP Microwell Substrate (SurModics, Eden Prairie, MN, USA) was added into the well and the reaction was stopped with sulfuric acid. Absorbance at 450 nm was measured with ARVO X5 (PerkinElmer). The relative amount of protein bound on the well was estimated from the absorbance.
# In Supporting Figure S1a, the values of Imax are shown in kinetics plots. In Figs 2c,e, 3c, S1d, S3, and S4, the relative luminescence intensities are shown as the fold-change in the Imax values of the samples relative to Imax with EGFP. In Figs 4, 5a,c and 6c, the relative luminescence intensities were normalized to the amount of the bound 3xFLAG-DYRK1A mutant and calculated as the fold-change relative to the value at 0 μM of the compounds.
# Small molecules in our original synthetic chemical library, including unpublished small molecule inhibitors of DYRK1A and its structural derivatives (data not shown), were added to the 96-well plates containing the transfected cells at a final concentration of 4 μM. The cells were then processed as described above.
# 3xFLAG-DYRK1A = target: T2, 3xFLAG-DYRK1A (Homo sapiens, UniProt Q13627); test: Western blot of 3xFLAG-DYRK1A level in transfected 293T cells; assay type: cell-based
# T2 construct: F2A peptide linking to EGFP (2A skipping releases EGFP; a 2A remnant may stay on DYRK1A) (C); expressed in transfected cells; host or cells: 293T cells, transient
# Protocol: To investigate whether DYRK1A is a client kinase of the CDC37/HSP90 system, we used a HSP90 inhibitor, ganetespib. 293T cells were transiently transfected with an expression vector of 3xFLAG-tagged DYRK1A (3xFLAG-DYRK1A). At 24 h after transfection, the cells were treated with ganetespib for the indicated time (0–8 h). Total cell lysates were collected and subjected to SDS-PAGE followed by Western blot analysis.
# Figure 1 Ganetespib, a HSP90 inhibitor, decreases the DYRK1A protein level. 293T cells were transiently transfected with an expression vector for 3xFLAG-DYRK1A. At 24 h after transfection, the cells were treated with ganetespib (100 nM) and collected 0 and 8 h after treatment. Total cell lysates were subjected to SDS-PAGE followed by Western blot analysis using antibodies against FLAG and GAPDH. In the control group (DMSO), expression of 3xFLAG-DYRK1A increased at 8 h compared to 0 h, and ganetespib suppressed this increase of 3xFLAG-DYRK1A.
# (§2) Western blot analysis was performed using the antibodies described above. In brief, total cell lysates were separated by SDS-PAGE (5–20% gels; ATTO, Tokyo, Japan) under reducing conditions and then transferred to a PVDF membrane (PALL, SP, Brazil). Antibody reactions were performed with Can Get Signal® Immunoreaction Enhancer Solution (Toyobo). Peroxidase activities on the membrane were visualized with ECL Western Blotting Detection Reagents (GE Healthcare) or ImmunoStar® LD (Wako Pure Chemical Industries, Osaka, Japan), and a ChemiDoc^TM MP Imaging System (Bio-Rad, Hercules, CA, USA).
# endogenous DYRK1A = target: T3, endogenous DYRK1A (Homo sapiens, UniProt Q13627); test: Western blot of endogenous DYRK1A protein in HEK293 cells; assay type: cell-based; conditions: ganetespib 100 nM, 4 days
# T3 construct: endogenous in cells; host or cells: HEK293
# Protocol: We investigated whether CaNDY destabilizes DYRK1A as ganetespib does. […] Next we examined whether CaNDY decreased endogenous DYRK1A protein. HEK293 cells were cultured for 0–4 days with CaNDY (2 μM) and then subjected to SDS-PAGE followed by Western blot analysis using antibodies against DYRK1A and GAPDH. […] The treated cells were also subjected to reverse transcription followed by quantitative PCR analysis.
# as §2
structure (smiles),measurement,setting,value
CCN1/C(=C/C(C)=O)Sc2ccc(O)cc21 [INDY],inhibition of luminescence activity of CDC37-nanoKAZ,CDC37-nanoKAZ,did not inhibit
N=C1NC(=O)C(=Cc2ccc3c(c2)OCO3)S1 [PD0439],pIC50,"DYRK1A; 25 μM ATP, 1 μM DYRKtide-F, read-out: IC50, substrate phosphorylation",7.78
same,pEC50,[1],6.24
[H]/N=C1/NC(=O)C(=Cc2ccc3[nH]ccc3c2)S1 [PD0442],inhibitory activity against recombinant DYRK1A,DYRK1A,weak inhibitory activity
same,antagonism of the CDC37-nanoKAZ interaction,[1],did not antagonize the interaction
O=C1NC(=S)S/C1=C\c1ccc2[nH]ccc2c1 [RD0440],inhibitory activity against recombinant DYRK1A,DYRK1A,weak inhibitory activity
same,antagonism of the CDC37-nanoKAZ interaction,[1],did not antagonize the interaction
CC[C@H](C)[C@H](NC(=O)[C@H]([C@@H](C)CC)N(C)C(C)=O)C(=O)N[C@H](C(=O)N[C@@H](CC(C)C)C(=O)[C@@]1(C)CO1)[C@@H](C)O [epoxomicin],effect on CaNDY-mediated degradation of 3xFLAG-DYRK1A,"3xFLAG-DYRK1A; 2 µM epoxomicin pre-treatment 1 h, then CaNDY 2 µM 8 h",partially prevented
"CC(C)c1cc(-c2n[nH]c(=O)n2-c2ccc3c(ccn3C)c2)c(O)cc1O [ganetespib, reference compound]",DYRK1A protein level,"3xFLAG-DYRK1A; ganetespib 100 nM, 8 h, compared with DMSO",decreased the DYRK1A level
same,accumulation of endogenous DYRK1A,endogenous DYRK1A,prevented it
same,pEC50,[1],7.85
same,inhibition of luminescence activity of CDC37-nanoKAZ,CDC37-nanoKAZ,did not inhibit
COc1ccc2c(c1)[nH]c1c(C)nccc12 [harmine],inhibition of luminescence activity of CDC37-nanoKAZ,CDC37-nanoKAZ,did not inhibit
